# Like-named read-outs stand apart in the source and are kept apart here.
# Key:
# [1] = test system: P. falciparum (K1, multidrug-resistant strain); conditions: cited from earlier work
# [2] = test system: amastigotes of L. donovani (LD-1S/MHOM/SD/00-strain 1S); conditions: cited from earlier work
# Vero cells [3] = conditions: cited from earlier work
# Vero cells [4] = assay: Vero cell toxicity; conditions: Vero cells versus L. donovani
# [5] = test system: chloroquine-resistant strain (Indocrina W2) of Plasmodium falciparum; conditions: cited from earlier work
# [6] = test system: recombinant Tulahuen clone C4 of T. cruzi; conditions: read-out: IC50 T. cruzi; cited from earlier work
# [7] = test system: human breast cancer cell line MCF-7; conditions: read-out: IC50 cytotoxic activity MCF-7; cited from earlier work
# [8] = test system: amastigotes of L. donovani (LD-1S/MHOM/SD/00-strain 1S); assay: In vitro antiparasitic assay: Leishmania; assay type: cell-based; conditions: read-out: typical IC50 response of L. donovani
# African trypanosomiasis = conditions: mice; cited from earlier work
# Vero cells [9] = test system: Vero cells
# [10] = test system: Leishmania promastigote and amastigote forms; conditions: cited from earlier work
# T. cruzi = conditions: cited from earlier work
# [11] = read-out: IC50 P. falciparum K1, K1, multidrug-resistant strain
# [12] = read-out: IC50 growth of Leishmania donovani in the amastigote form
# [13] = read-out: cytotoxicity to Vero cells IC50
# [14] = read-out: IC50 P. falciparum K1 strain, in vitro
compound,measurement,setting,value
CC[C@@H](O)[C@@H]1C[C@@H]2OC(=O)c3c(cc(OC)c(OC)c3O)[C@@H]2O1 [11-hydroxymonocerin],IC50,[1]; [11],7.7 µM
"O=C1C=C[C@]23Oc4ccc(O)c5c4[C@](CCC5=O)(Oc4cccc1c42)O3 [Compound 6, preussomerin EG^1]",IC50,[2]; [12],0.12 µM
same,IC50,Vero cells [3]; [13],150 µM
same,therapeutic window: times greater anti-leishmanial activity than cytotoxicity,Vero cells [4],12 times
"O=C1CCC2(Oc3cccc4cccc(c34)O2)c2c(O)ccc(O)c21 [Compound 2, palmarumycin CP17]",IC50,[2]; [12],1.34 µM
same,IC50,Vero cells [3]; [13],174 µM
same,therapeutic window: times greater anti-leishmanial activity than cytotoxicity,Vero cells [4],130 times
"COc1c(CC(C)O)c2c3c(CC(C)O)c(OC)c(=O)c4c(O)cc5c(c6c(cc(O)c(c1=O)c62)OCO5)c43 (stereo not shown) [Compound 7, cercosporin]",IC50,[2]; read-out: IC50 L. donovani,0.46 µM
same,IC50,[5]; read-out: IC50 P. falciparum,1.03 µM
same,IC50,[6],1.08 µM
same,IC50,[7],4.68 µM
COc1cc2c3c(oc2c(C)c1O)C(=O)C(C)=CC3=O [xylariaquinone A],IC50,[1]; [14],6.68 µM
CCC[C@H]1C[C@H]2OC(=O)c3c(cc(OC)c(OC)c3O)[C@H]2O1 [Monocerin],IC50,[1]; [11],0.68 µM
"COC1=CC(=O)C(Cl)=C(C)C1=O [2-chloro-5-methoxy-3-methylcyclohexa-2,5-diene-1,4-dione]",IC50,[1]; [14],1.84 µM
C[C@@H]1[C@H](O)[C@@H](C)/C=C/C=C/C=C/C=C/C=C/C=C/C=C/[C@H](O[C@@H]2O[C@H](C)[C@@H](O)[C@H](N)[C@@H]2O)C[C@@H]2O[C@](O)(C[C@@H](O)C[C@@H](O)[C@H](O)CC[C@@H](O)C[C@@H](O)CC(=O)O[C@H]1C)C[C@H](O)[C@H]2C(=O)O [Amphotericin B],IC50,[8],0.07 to 0.12 µg/mL
C/C(=C\Cc1c(O)c(Cl)c(C)c(C=O)c1O)CC/C=C(\C)[C@@H]1CC(=O)C(C)(C)O1 [Ascofuranone],therapeutic effects for African trypanosomiasis,African trypanosomiasis,good therapeutic effects
palmarumycin CP18 [Compound 3],therapeutic window: times greater anti-leishmanial activity than cytotoxicity,Vero cells [9],245 times
same,IC50,[2]; [12],0.62 µM
same,IC50,Vero cells [3],152 µM
"CCN(CC)CCCC(C)Nc1ccnc2cc(Cl)ccc12 (stereo not shown) [Chloroquine, reference compound]",IC50,[5]; positive control,0.08 to 0.1 µM
CC(C)C[C@@H](C(=O)N[C@H]1COC(=O)[C@H](Cc2ccccc2)N(C)C(=O)[C@H](CC(C)C)N(C)C(=O)[C@@H](NC(=O)[C@H](CC(C)C)N(C)C)COC(=O)[C@H](Cc2ccccc2)N(C)C(=O)[C@H](CC(C)C)N(C)C1=O)N(C)C [IB-01212],leishmanicidal activity,[10],low micromolar concentrations
"Oc1cccc2c1[C@@H](O)CCC21Oc2cccc3cccc(c23)O1 [Compound 5, CJ-12,371]",IC50,[2]; [12],8.4 µM
same,IC50,Vero cells [3]; [13],9 µM
same,therapeutic window: times greater anti-leishmanial activity than cytotoxicity,Vero cells [4],75 times
"O=C1CCC2(Oc3cccc4cccc(c34)O2)c2cccc(O)c21 [Compound 1, Palmarumycin CP2]",IC50,[2]; [12],3.93 µM
same,IC50,Vero cells [3]; [13],162 µM
same,therapeutic window: times greater anti-leishmanial activity than cytotoxicity,Vero cells [4],41 times
palmarumycin CP19 [Compound 4],therapeutic window: times greater anti-leishmanial activity than cytotoxicity,Vero cells [9],18 times
same,IC50,[2]; [12],11.6 µM
same,IC50,Vero cells [3],140 µM
COc1cccc2oc3c(Cl)c(O)c([C@H]4CCC[C@@H](C)O4)c(O)c3c(=O)c12 [Chaetoxanthone C],IC50 T. cruzi,T. cruzi,1.5 µg/mL

# Reference: paper PMC3375117 (International Microbiology, 2011)
